Data as given in patent US20210275606A1, “COMPOSITIONS COMPRISING BACTERIAL STRAINS” (4D Pharma Research Limited, priority 2018, published 2021).
Several values for one entry are separate records, joined by “and”; a condition that tells them apart may be missing. Equal values may be shown once. Where a name gives a salt, the structure may show the parent alone.

Experiments:
HDAC [1] = test: Global HDAC activity analysis in HT-29 cells; type: cell-based; details: for inhibition of total HDAC activity: whole HT-29 cells and HT-29 cell lysate tested, sentence does not say which
Experimental: Pure cultures of 43043 bacteria were grown anaerobically in YCFA broth until they reached their stationary growth phase. Cultures were centrifuged at 5,000×g for 5 minutes and the cell-free supernatant (CFS) was filtered using a 0.2 μM filter (Millipore, UK). 1 mL aliquots of the CFS were stored at −80° C. until use. Sodium butyrate, hexanoic and valeric acid were obtained from Sigma Aldrich (UK) and suspensions were prepared in YCFA broth.
(§1) Whole cells and cell free supernatants of stationary phase 43043 cultures were isolated by centrifugation and filtering in a 0.22 uM filter. HT-29 cells were used 3 days' post confluence and stepped down in 1 mL DTS 24 hours prior to commencement of the experiment. The HT-29 cells were challenged with 10% cell free supernatant diluted in DTS and this was left to incubate for 48 hours. […] were then extracted using the Sigma Aldrich Nuclease extraction kit and samples were snap frozen prior to HDAC activity measurement. HDAC activity kit was assessed fluorometrically using the Sigma Aldrich (UK) kit.
(§2) To investigate which metabolites were responsible for the strain-induced HDAC inhibition, different concentrations of hexanoic acid, valeric acid and sodium butyrate were measured for their HDAC inhibition on whole HT-29 cells and on HT-29 cell lysate.

[2] = system: graft versus host disease (GVHD) induced in Balb/C mice; test: Graft versus host disease (GVHD) induced in Balb/C mice; type: in vivo, mouse; details: for mean body weight over the course of the study: compared with Group 4 (PBS, TBI + allogeneic transfer), daily dosing Days -14 to 30
Description: Male Balb/C mice (BALB/cAnNCrl; 6-8 weeks old; n=125) with an average starting body weight (±SEM) of 20.67±0.11 g were obtained from Charles River Laboratories (Wilmington, Mass.). An additional n=75 male C57Bl/6 (C57Bl/6NCrl; 6-8 weeks old) were obtained from the same vendor. Animals were acclimatized prior to study commencement. During this period, the animals were observed daily in order to reject any that presented in poor condition.
Animals were randomized into 5 groups at the start of the study. Each group comprised between 8 and 12 mice. Each group was further sub-divided into cohorts A and B (n=4-6 mice per group per cohort); cohorts had staggered disease timelines.
All animals were weighed and randomized by weight into treatment groups prior to study start. Prior to GVHD induction on Days −1 and 0, all animals were pre-treated (P0) with PBS (Groups 1-4), bacterial strain 43043 (Group 5), or Butyrate salt control (Group 6) daily starting on Day −14. Butyrate was used as a positive control as butyrate deficit has been identified in the gut of GVHD patients. Treatments were administered to groups at random, and group treatments were alternated daily to prevent the same groups from being treated at the same time each day. Once test article dosing had begun, care was taken to minimize group cross-contamination: gloves were changed by the technician between treatment groups, and were sprayed with 70% isopropyl alcohol between each cage of the same group.
GVHD was induced in n=84 Balb/C mice (Groups 4-10) using a single acute dose of 8 Gy of total body irradiation (TBI) on Day −1. On Day 0, these recipient mice were given an intravenous injection of a combination of T cell depleted bone marrow cells and splenic cells from donor C57Bl/6 mice in PBS. Bone marrow cells were isolated using standard flushing practices, and were T cell depleted using the cell surface T cell antigen CD3, with a CD3-biotin kit (Miltenyi Biotec catalog 130-094-973). Splenocytes were isolated using Miltenyi GentleMACS Dissociators. Animals in Group 1 served as naïve controls and received neither TBI nor cell transfer. […] Animals in Group 3 served as syngeneic adoptive transfer controls; these animals received 8 Gy of TBI on Day −1, and an intravenous injection of a combination of T cell depleted bone marrow cells and splenic cells from donor Balb/C mice in sterile PBS.
Daily test article dosing continued for the duration of the study (Days −14 to 30). Animal survival was recorded daily, as an indication of GVHD severity. […] The GVHD score was assessed by a standard scoring system based on five criteria (Table 21): percentage of weight change, posture (hunching), activity, fur texture, and skin integrity (maximum score=10). […]

[3] = system: DSS-induced colitis mouse model; test: DSS-induced colitis mouse model, ileum histology; type: in vivo; set-up: key to Erosion (epithelial cell damage) / Depletion of goblet cells / Edema / Leucocytes Infiltration: 0: None; Minimal <10%; Mild 10-25%; 3: Moderate 26-50%; 4: Marked >50%; COLITIS SCORING (sum) / COLITIS SCORING mean ± SEM: scale not given here; details: Day 7; for COLITIS SCORING mean ± SEM: group mean, n = 9, 3% DSS; for Depletion of goblet cells / Edema / Erosion (epithelial cell damage) / Leucocytes Infiltration: ileum histology score 0-4, individual mouse; for COLITIS SCORING (sum): sum of the four ileum histology scores, individual mouse
Experimental: The objective of this study was to determine the prophylactic efficacy of R. intestinalis strain 43043 in a DSS-induced colitis mouse model, upon repeated oral administration.
Tacrolimus was dosed at 1 mg/kg/day
Valproic acid was dosed at 200 mg/kg/day
PBS, YCFA and bacterial cultures were dosed at 200 μL/day
Each of sixty three, 6 week old healthy male C57BL/6J mice were obtained from Charles River (France) and individually identified and labelled with a specific code. Each treatment group (9 animals/group) were housed in three different cages.
Days −7 to Day −1: Treatment with bacteria and reference substances according the treatment table above • Once daily oral administration of PBS, YCF A or Bacteria—200 μL per mouse • Once daily oral administration of Valproic acid at 200 mg/kg/day under a volume of 10 mL/kg From Day O to Day+7: DSS administration • Administration of 3% DSS in the drinking water From Day O to Day+6: Treatment with bacteria and reference substances • Once daily oral administration of PBS, YCFA or Bacteria—200 μL per mouse • Once daily oral administration of Valproic acid—200 mg/kg in sterile distilled water—10 mL/kg • Once daily SC administration of Tacrolimus—1 mg/kg in sterile 1% Tween80, 0.9% NaCl—10 mL/kg Day+7: Sacrifice of all groups and tissue harvesting • Euthanasia of animals was performed under gas anesthesia (Isoflurane) followed by exsanguination and cervical dislocation. Euthanasia methods used are those recommended for mice and rats by European directive 20 I 0/63/CE and the procedure describing euthanasia methods was approved by IACUC. • Laparotomy and ileum harvesting, just upstream of the caecum (from 0.5 cm and on)—all tissue harvested from exactly the same area between all mice: • 1.5 cm swiss-rolled ileum was harvested for histology, the closest to the caecum
Ileum Swiss-rolls specimens were embedded in paraffin and sections of 5 μm thickness were cut and mounted on SuperFrost Ultra plus glass slides. HP (Hematoxylin-Phloxin) staining & AB-PAS (Alcian Blue-Periodic Acid Schiff) staining were performed to visualize histomorphologic changes. A scoring based on edema, erosion, loss of crypts/goblet cells and infiltrates was established on each animal, using the criteria in the following table: […]

HDAC [4] = test: HDAC inhibition on HT-29 cell lysate; type: biochemical
Experimental: as §1, §2

Structure (SMILES)	inhibition of total HDAC activity (HDAC [1])	mean body weight over the course of the study [2]	COLITIS SCORING mean ± SEM [3]	Depletion of goblet cells ([3]; 3% DSS)	Edema ([3]; 3% DSS)	Erosion (epithelial cell damage) ([3]; 3% DSS)	Leucocytes Infiltration ([3]; 3% DSS)	COLITIS SCORING (sum) ([3]; 3% DSS)	other results
CCCCCC(=O)O [hexanoic acid]	did show significant inhibitory activity								
C=CC[C@@H]1/C=C(\C)C[C@H](C)C[C@H](OC)[C@H]2O[C@@](O)(C(=O)C(=O)N3CCCC[C@H]3C(=O)O[C@H](/C(C)=C/[C@@H]3CC[C@@H](O)[C@H](OC)C3)[C@H](C)[C@@H](O)CC1=O)[C@H](C)C[C@@H]2OC [Tacrolimus]		same trend was observed	0.44 ±0.08	0	0	0	0 (6×) and 2 (Mild 10-25%) and 1 (Minimal <10%) (2×)	0 (6×) and 2 and 1 (2×)	leukocyte infiltration in the ileum ([3]; group comparison in text, 3% DSS): reduced leukocyte infiltration comparable to controls
CCCC(CCC)C(=O)O [Valproic acid, Valproic Acid]			0.67 ± 0.10	0	0	0	2 (Mild 10-25%) (2×) and 1 (Minimal <10%) (2×) and 0 (5×)	2 (2×) and 1 (2×) and 0 (5×)	
CCCCC(=O)O [Valeric acid, valeric acid]	inhibited total HDAC activity								
CCCC(=O)O [Butyrate salt]		No significant differences in mean body weight							Mean colitis severity scores (endoscopy) ([2]; Day 29, as compared to naïve mice (Group 1)): increased; mean GVHD scores ([2]; Days 0 to 30, AUC, compared to Group 3 (syngeneic transfer), with and without scores carried forward): significantly increased mean GVHD scores as compared to Group 3
CCCC(=O)[O-].[Na+] [sodium butyrate, Sodium butyrate]									inhibition of HDAC activity (HDAC [1]; on whole HT-29 cells): significant (P<0.05) inhibition of HDAC activity; inhibition of HDAC activity (HDAC [4]): significant (P<0.05) inhibition of HDAC activity
